Data published in ChEMBL document CHEMBL1134491, “QSAR and molecular modeling studies of baclofen analogues as GABA(B) agonists. Insights into the role of the aromatic moiety in GABA(B) binding and activation” (J Med Chem, 2001).
pIC50: −log10 of the molar value.

Assay: Inhibitory concentration against binding of (R)-(-)-[3H]-baclofen to GABAB sites on rat whole brain synaptic membrane
`NC[C@H](CC(=O)O)c1ccc(O)cc1` showed a pIC50 of under 4.00.
`NC[C@H](CC(=O)O)c1ccco1` gave a pIC50 of under 4.00.
For `NC[C@H](CC(=O)O)c1cc(Cl)cs1`, the pIC50 was 4.34.
`NC[C@H](CC(=O)O)c1ccc(F)cc1` gave a pIC50 of 6.10.
In the case of `NC[C@H](CC(=O)O)c1cccs1`, the pIC50 was 5.01.
In the case of `NC[C@H](CC(=O)O)c1ccc(Cl)s1`, the pIC50 was 6.21.
`NC[C@H](CC(=O)O)c1ccc(Br)s1` showed a pIC50 of 5.73.
In the case of `NC[C@H](CC(=O)O)c1cc(Br)cs1`, the pIC50 was 4.41.
`Cc1ccc([C@H](CN)CC(=O)O)o1` gave a pIC50 of under 4.00.
Work on `Cc1ccc([C@H](CN)CC(=O)O)s1` yielded a pIC50 of 3.87.
Work on `NC[C@H](CC(=O)O)c1ccsc1` yielded a pIC50 of 4.68.
For `Cc1ccsc1[C@H](CN)CC(=O)O`, the pIC50 was 3.91.
Work on `NC[C@H](CC(=O)O)c1ccccc1Cl` yielded a pIC50 of 6.10.
With `NC[C@H](CC(=O)O)c1cccc(Cl)c1` the pIC50 was 4.70.
